Format in all cases: functional
In assay [1] the test system is Staphylococcus aureus. As to the kind of experiment: Antibacterial activity against Staphylococcus aureus ATCC25923 assessed as bacterial growth inhibition after 24 hrs by broth dilution method. The note with it: ATCC25923, 24 h. On the technique in general: In broth dilution the organism is exposed to a series of concentrations in liquid medium.
The test system of assay [2] is Staphylococcus epidermidis. As to the kind of experiment: Antibacterial activity against Staphylococcus epidermidis ATCC12228 assessed as bacterial growth inhibition after 24 hrs by broth dilution method. The note with it: ATCC12228, 24 h.
For assay [3], the system named is Bacillus subtilis. As to the kind of experiment: Antibacterial activity against Bacillus subtilis ATCC6633 assessed as bacterial growth inhibition after 24 hrs by broth dilution method. As to conditions: ATCC6633, 24 h.
Assay [4] has as its system Escherichia coli. As to the kind of experiment: Antibacterial activity against Escherichia coli ATCC25922 assessed as bacterial growth inhibition after 24 hrs by broth dilution method. As to conditions: ATCC25922, 24 h.
For assay [5], the system named is Proteus vulgaris. As to the kind of experiment: Antibacterial activity against Proteus vulgaris ATCC49101 assessed as bacterial growth inhibition after 24 hrs by broth dilution method. As to conditions: ATCC49101, 24 h.
The test system of assay [6] is Pseudomonas aeruginosa. Description: Antibacterial activity against Pseudomonas aeruginosa ATCC2785 assessed as bacterial growth inhibition after 24 hrs by broth dilution method. The note with it: ATCC2785, 24 h.
Assay [7] has as its system Staphylococcus aureus. Description: Antibacterial activity against methicillin-resistant Staphylococcus aureus ATCC43300 assessed as bacterial growth inhibition after 24 hrs by broth dilution method. The note with it: ATCC43300, 24 h.
The subject of assay [8] is Staphylococcus aureus. As to the kind of experiment: Antibacterial activity against methicillin-resistant Staphylococcus aureus ATCC523512 assessed as bacterial growth inhibition after 24 hrs by broth dilution method. The note with it: ATCC523512, 24 h.
Assay [9] has as its system Staphylococcus aureus. Description: Antibacterial activity against methicillin-resistant Staphylococcus aureus ATCC425055 assessed as bacterial growth inhibition after 24 hrs by broth dilution method. The note with it: ATCC425055, 24 h.
The subject of assay [10] is Staphylococcus aureus. As to the kind of experiment: Antibacterial activity against methicillin-resistant Staphylococcus aureus ATCC513045 assessed as bacterial growth inhibition after 24 hrs by broth dilution method. As to conditions: ATCC513045, 24 h.
Assay [11] relates to Staphylococcus aureus. As to the kind of experiment: Antibacterial activity against methicillin-resistant Staphylococcus aureus ATCC62202 assessed as bacterial growth inhibition after 24 hrs by broth dilution method. As to conditions: ATCC62202, 24 h.
The subject of assay [12] is Staphylococcus aureus. As to the kind of experiment: Antibacterial activity against methicillin-resistant Staphylococcus aureus ATCC51033 assessed as bacterial growth inhibition after 24 hrs by broth dilution method. As to conditions: ATCC51033, 24 h.
Assay [13] relates to Staphylococcus aureus. Description: Antibacterial activity against methicillin-resistant Staphylococcus aureus ATCC52056 assessed as bacterial growth inhibition after 24 hrs by broth dilution method. The note with it: ATCC52056, 24 h.
For assay [14], the system named is Staphylococcus aureus. As to the kind of experiment: Antibacterial activity against methicillin-resistant Staphylococcus aureus ATCC515992 assessed as bacterial growth inhibition after 24 hrs by broth dilution method. As to conditions: ATCC515992, 24 h.
Assay [15] has as its system Staphylococcus aureus. As to the kind of experiment: Antibacterial activity against methicillin-resistant Staphylococcus aureus ATCC510019 assessed as bacterial growth inhibition after 24 hrs by broth dilution method. As to conditions: ATCC510019, 24 h.

Results on six molecules are retold here after ChEMBL document CHEMBL3596195, “Novel cajaninstilbene acid derivatives as antibacterial agents” (Eur J Med Chem, 2015).

≈ marks a conversion by molar mass, not a printed value.

For orientation: MIC means the lowest concentration found to suppress growth. Regarding `COc1cc(O)c(C(=O)O)c(/C=C/c2cccc(F)c2)c1`, the MIC is more than 128 µg/mL in assay [1]; 64 µg/mL (≈ 222 µM) in assay [2]; more than 128 µg/mL in assay [3]; more than 128 µg/mL in assay [4]; more than 128 µg/mL in [5]; more than 128 µg/mL in [6]. Moreover, the MIC in [7] is more than 128 µg/mL; in assay [8], 128 µg/mL (≈ 444 µM); in assay [9], more than 128 µg/mL; in assay [10], more than 128 µg/mL; in [11] it was more than 128 µg/mL; in [12], more than 128 µg/mL. Besides, the MIC in assay [13], in assay [14] and in [15] was more than 128 µg/mL in each case.
Take `COc1ccc(/C=C/c2cc(OC)cc(O)c2C(=O)O)cc1`: the MIC was more than 128 µg/mL in assay [1]; more than 128 µg/mL in assay [2]; 64 µg/mL (≈ 213 µM) in assay [3]; more than 128 µg/mL in assay [4]; more than 128 µg/mL in [5]; more than 128 µg/mL in [6]. The MIC in assay [7], in assay [8], in assay [9], in assay [10], in assay [11] and in [12] was more than 128 µg/mL in each case. The MIC in assay [13], in [14] and in [15] was more than 128 µg/mL each time.
Regarding `COc1cc(/C=C/c2ccccc2)c(C(=O)O)c(O)c1CC=C(C)C`, the MIC is 16 µg/mL (≈ 47.3 µM) in assay [1]; 16 µg/mL (≈ 47.3 µM) in assay [2]; 32 µg/mL (≈ 94.6 µM) in assay [3]; more than 128 µg/mL in [4]; more than 64 µg/mL in [5]; more than 64 µg/mL in assay [6]. The MIC is 16 µg/mL (≈ 47.3 µM) in [7]; 32 µg/mL (≈ 94.6 µM) in assay [8]; 16 µg/mL (≈ 47.3 µM) in [9]; 16 µg/mL (≈ 47.3 µM) in [10]; 8 µg/mL (≈ 23.6 µM) in assay [11]; 16 µg/mL (≈ 47.3 µM) in [12]. Further, the MIC in assay [13] worked out at 16 µg/mL (≈ 47.3 µM); in assay [14], 32 µg/mL (≈ 94.6 µM); in [15], 32 µg/mL (≈ 94.6 µM).
On to `COC(=O)c1c(/C=C/c2ccccc2)cc(OC)c(CC=C(C)C)c1O`, for which the minimum inhibitory concentration (MIC) in assay [1], in assay [2], in assay [3], in assay [4], in assay [5] and in assay [6] was more than 128 µg/mL throughout. The MIC was 128 µg/mL (≈ 363 µM) in assay [7]; more than 128 µg/mL in [8]; 128 µg/mL (≈ 363 µM) in assay [9]; 128 µg/mL (≈ 363 µM) in assay [10]; 128 µg/mL (≈ 363 µM) in [11]; more than 128 µg/mL in assay [12]. Further, the MIC in [13], in assay [14] and in assay [15] was more than 128 µg/mL in each case.
For `COC(=O)c1c(/C=C/c2ccccc2F)cc(OC)c(CC=C(C)C)c1O`, the MIC in [1], in assay [2], in [3], in assay [4], in assay [5] and in assay [6] was more than 128 µg/mL each time. Also, the MIC in assay [7] was 128 µg/mL (≈ 346 µM); in assay [8] it was more than 128 µg/mL; in [9], 128 µg/mL (≈ 346 µM); in assay [10], 128 µg/mL (≈ 346 µM); in assay [11], 128 µg/mL (≈ 346 µM); in [12] it was more than 128 µg/mL. The MIC in assay [13], in assay [14] and in assay [15] was more than 128 µg/mL in each case.
Consider `COC(=O)c1c(/C=C/c2cccc(F)c2)cc(OC)c(CC=C(C)C)c1O`, for which the MIC was 64 µg/mL (≈ 173 µM) in assay [1]; more than 128 µg/mL in [2]; 128 µg/mL (≈ 346 µM) in [3]; more than 128 µg/mL in assay [4]; more than 128 µg/mL in [5]; more than 128 µg/mL in assay [6]. In addition, the MIC in [7] is more than 128 µg/mL; in assay [8], 64 µg/mL (≈ 173 µM); in [9], more than 128 µg/mL; in assay [10], 128 µg/mL (≈ 346 µM); in [11], 128 µg/mL (≈ 346 µM); in assay [12], 128 µg/mL (≈ 346 µM). The MIC is more than 128 µg/mL in [13], more than 128 µg/mL in assay [14] and 128 µg/mL (≈ 346 µM) in assay [15].
